Tests used:
Type in all cases: in vivo
[1] = tested on: Solarium nigrum (SOLNI); assay: Pre-emergence Test, SOLNI; conditions: 1000 g/ha, evaluated after 13 days
[2] = tested on: Amaranthus retoflexus (AMARE); assay: Pre-emergence Test, AMARE; conditions: 1000 g/ha, evaluated after 13 days
[3] = tested on: Ipornoea hederacea (IPOHE); assay: Pre-emergence Test, IPOHE; conditions: 1000 g/ha, evaluated after 13 days
[4] = tested on: Echinochloa crus-galli (ECHCG); assay: Pre-emergence Test, ECHCG; conditions: 1000 g/ha, evaluated after 13 days
[5] = tested on: Lolium perenne (LOLPE); assay: Pre-emergence Test, LOLPE; conditions: 1000 g/ha, evaluated after 13 days
[6] = tested on: Setaria faberi (SETFA); assay: Pre-emergence Test, SETFA; conditions: 1000 g/ha, evaluated after 13 days
[7] = tested on: Solarium nigrum (SOLNI); assay: Post-emergence Test, SOLNI; conditions: sprayed after 8 days cultivation, 1000 g/ha, evaluated after 13 days
Procedure: (§1) Seeds of a variety of test species are sown in standard soil in pots (Amaranthus retoflexus (AMARE), Solarium nigrum (SOLNI), Setaria faberi (SETFA), Lolium perenne (LOLPE), Echinochloa crus-galli (ECHCG), Ipornoea hederacea (IPOHE)). After 8 days cultivation under controlled conditions in a glasshouse (at 24° C./16° C., day/night; 14 hours light; 65% humidity), the plants are sprayed with an aqueous spray solution derived from the formulation of the technical active ingredient in acetone/water (50:50) solution containing 0.5% Tween 20 (polyoxyethylene sorbitan monolaurate, CAS RN 9005-64-5). Compounds are applied at 1000 g/ha unless otherwise stated. The test plants are then grown in a glasshouse under controlled conditions in a glasshouse (at 24° C./16° C., day/night; 14 hours light; 65% humidity) and watered twice daily. After 13 days the test is evaluated for the percentage damage caused to the plant. The biological activities are shown in the following table on a five-point scale (5=81-100%; 4=61-80%; 3=41-60%; 2=21-40%; 1=10-20%; 0=0%; −=not tested).

[8] = tested on: Amaranthus retoflexus (AMARE); assay: Post-emergence Test, AMARE; conditions: sprayed after 8 days cultivation, 1000 g/ha, evaluated after 13 days
Method in brief: (§2)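 Pots sown with AMARE, SOLNI, SETFA, LOLPE, ECHCG, IPOHE, kept in glasshouse (24/16 °C, 14 h light, 65% humidity), sprayed at 1000 g/ha unless stated, in acetone/water 50:50 with 0.5% Tween 20. Damage scored after 13 days on a 0–5 scale (5=81–100%, 0=0%).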

[9] = tested on: Ipornoea hederacea (IPOHE); assay: Post-emergence Test, IPOHE; conditions: sprayed after 8 days cultivation, 1000 g/ha, evaluated after 13 days
Method in brief: as §2

[10] = tested on: Echinochloa crus-galli (ECHCG); assay: Post-emergence Test, ECHCG; conditions: sprayed after 8 days cultivation, 1000 g/ha, evaluated after 13 days
Method in brief: as §2

[11] = tested on: Lolium perenne (LOLPE); assay: Post-emergence Test, LOLPE; conditions: sprayed after 8 days cultivation, 1000 g/ha, evaluated after 13 days
Procedure: as §1

[12] = tested on: Setaria faberi (SETFA); assay: Post-emergence Test, SETFA; conditions: sprayed after 8 days cultivation, 1000 g/ha, evaluated after 13 days
Method in brief: as §2

[13] = tested on: ZEAMX; assay: Pre-emergence Test, ZEAMX; conditions: 1000 g/ha, evaluated after 13 days
[14] = tested on: ABUTH; assay: Pre-emergence Test, ABUTH; conditions: 1000 g/ha, evaluated after 13 days
[15] = tested on: ZEAMX; assay: Post-emergence Test, ZEAMX; conditions: sprayed after 8 days cultivation, 1000 g/ha, evaluated after 13 days
[16] = tested on: ABUTH; assay: Post-emergence Test, ABUTH; conditions: sprayed after 8 days cultivation, 1000 g/ha, evaluated after 13 days

CO/N=C(\C)c1cccc2c1c(=O)c(C(=O)OC)nn2-c1ccc(OC(F)(F)F)cc1 [Compound P1, methyl 5-[(E)-N-methoxy-C-methyl-carbonimidoyl]-4-oxo-1-[4-(trifluoromethoxy)phenyl] cinnoline-3-carboxylate]
percentage damage caused to the plant, SOLNI [1]: 1 (1=10-20%)
percentage damage caused to the plant, AMARE [2]: 1 (1=10-20%)
percentage damage caused to the plant, IPOHE [3]: 1 (1=10-20%)
percentage damage caused to the plant, ECHCG [4]: 5 (5=81-100%)
percentage damage caused to the plant, LOLPE [5]: 4 (4=61-80%)
percentage damage caused to the plant, SETFA [6]: 5 (5=81-100%)
percentage damage caused to the plant, SOLNI [7]: 3 (3=41-60%)
percentage damage caused to the plant, AMARE [8]: 2 (2=21-40%)
percentage damage caused to the plant, IPOHE [9]: 2 (2=21-40%)
percentage damage caused to the plant, ECHCG [10]: 5 (5=81-100%)
percentage damage caused to the plant, LOLPE [11]: 4 (4=61-80%)
percentage damage caused to the plant, SETFA [12]: 4 (4=61-80%)

CO/N=C(\C)c1cccc2c1c(=O)c(C(=O)O)nn2-c1ccc(OC(F)(F)F)cc1 [Compound P2, 5-[(E)-N-methoxy-C-methyl-carbonimidoyl]-4-oxo-1-[4-(trifluoromethoxy)phenyl] cinnoline-3-carboxylic acid]
percentage damage caused to the plant, SOLNI [1]: 2 (2=21-40%)
percentage damage caused to the plant, AMARE [2]: 0 (0=0%)
percentage damage caused to the plant, IPOHE [3]: 2 (2=21-40%)
percentage damage caused to the plant, ECHCG [4]: 5 (5=81-100%)
percentage damage caused to the plant, LOLPE [5]: 4 (4=61-80%)
percentage damage caused to the plant, SETFA [6]: 5 (5=81-100%)
percentage damage caused to the plant, ZEAMX [13]: 4 (4=61-80%)
percentage damage caused to the plant, ABUTH [14]: 3 (3=41-60%)
percentage damage caused to the plant, SOLNI [7]: 2 (2=21-40%)
percentage damage caused to the plant, AMARE [8]: 1 (1=10-20%)
percentage damage caused to the plant, IPOHE [9]: 3 (3=41-60%)
percentage damage caused to the plant, ECHCG [10]: 4 (4=61-80%)
percentage damage caused to the plant, LOLPE [11]: 3 (3=41-60%)
percentage damage caused to the plant, SETFA [12]: 4 (4=61-80%)
percentage damage caused to the plant, ZEAMX [15]: 3 (3=41-60%)
percentage damage caused to the plant, ABUTH [16]: 4 (4=61-80%)

C=C(OC)c1cccc2c1c(=O)c(C(=O)OC)nn2-c1ccc(OC(F)(F)F)cc1 [Compound P4, methyl 5-(1-methoxyvinyl)-4-oxo-1-[4-(trifluoromethoxy)phenyl] cinnoline-3-carboxylate]
percentage damage caused to the plant, SOLNI [1]: 0 (0=0%)
percentage damage caused to the plant, AMARE [2]: 0 (0=0%)
percentage damage caused to the plant, IPOHE [3]: 0 (0=0%)
percentage damage caused to the plant, ECHCG [4]: 5 (5=81-100%)
percentage damage caused to the plant, LOLPE [5]: 5 (5=81-100%)
percentage damage caused to the plant, SETFA [6]: 5 (5=81-100%)
percentage damage caused to the plant, SOLNI [7]: 0 (0=0%)
percentage damage caused to the plant, AMARE [8]: 0 (0=0%)
percentage damage caused to the plant, IPOHE [9]: 4 (4=61-80%)
percentage damage caused to the plant, ECHCG [10]: 4 (4=61-80%)
percentage damage caused to the plant, LOLPE [11]: 4 (4=61-80%)
percentage damage caused to the plant, SETFA [12]: 4 (4=61-80%)

O=C(O)c1nn(-c2ccc(OC(F)(F)F)cc2)c2cccc(-c3ncco3)c2c1=O [Compound P5, 5-oxazol-2-yl-4-oxo-1-[4-(trifluoromethoxy)phenyl] cinnoline-3-carboxylic acid]
percentage damage caused to the plant, SOLNI [1]: 0 (0=0%)
percentage damage caused to the plant, AMARE [2]: 0 (0=0%)
percentage damage caused to the plant, IPOHE [3]: 0 (0=0%)
percentage damage caused to the plant, ECHCG [4]: 0 (0=0%)
percentage damage caused to the plant, LOLPE [5]: 0 (0=0%)
percentage damage caused to the plant, SETFA [6]: 1 (1=10-20%)
percentage damage caused to the plant, SOLNI [7]: 2 (2=21-40%)
percentage damage caused to the plant, AMARE [8]: 1 (1=10-20%)
percentage damage caused to the plant, IPOHE [9]: 0 (0=0%)
percentage damage caused to the plant, ECHCG [10]: 3 (3=41-60%)
percentage damage caused to the plant, LOLPE [11]: 2 (2=21-40%)
percentage damage caused to the plant, SETFA [12]: 4 (4=61-80%)

COC(=O)c1nn(-c2ccc(OC(F)(F)F)cc2)c2cccc(-c3ccc(F)cc3)c2c1=O [Compound P6, methyl 5-(4-fluorophenyl)-4-oxo-1-[4-(trifluoromethoxy)phenyl] cinnoline-3-carboxylate]
percentage damage caused to the plant, SOLNI [1]: 0 (0=0%)
percentage damage caused to the plant, AMARE [2]: 0 (0=0%)
percentage damage caused to the plant, IPOHE [3]: 0 (0=0%)
percentage damage caused to the plant, ECHCG [4]: 0 (0=0%)
percentage damage caused to the plant, LOLPE [5]: 0 (0=0%)
percentage damage caused to the plant, SETFA [6]: 0 (0=0%)
percentage damage caused to the plant, SOLNI [7]: 0 (0=0%)
percentage damage caused to the plant, AMARE [8]: 0 (0=0%)
percentage damage caused to the plant, IPOHE [9]: 0 (0=0%)
percentage damage caused to the plant, ECHCG [10]: 0 (0=0%)
percentage damage caused to the plant, LOLPE [11]: 0 (0=0%)
percentage damage caused to the plant, SETFA [12]: 0 (0=0%)

COC(=O)c1nn(-c2ccc(OC(F)(F)F)cc2)c2cccc(C#N)c2c1=O [Compound P7, methyl 5-cyano-4-oxo-1-[4-(trifluoromethoxy)phenyl] cinnoline-3-carboxylate]
percentage damage caused to the plant, SOLNI [1]: 0 (0=0%)
percentage damage caused to the plant, AMARE [2]: 0 (0=0%)
percentage damage caused to the plant, IPOHE [3]: 0 (0=0%)
percentage damage caused to the plant, ECHCG [4]: 2 (2=21-40%)
percentage damage caused to the plant, LOLPE [5]: 0 (0=0%)
percentage damage caused to the plant, SETFA [6]: 1 (1=10-20%)
percentage damage caused to the plant, SOLNI [7]: 2 (2=21-40%)
percentage damage caused to the plant, AMARE [8]: 1 (1=10-20%)
percentage damage caused to the plant, IPOHE [9]: 0 (0=0%)
percentage damage caused to the plant, ECHCG [10]: 1 (1=10-20%)
percentage damage caused to the plant, LOLPE [11]: 0 (0=0%)
percentage damage caused to the plant, SETFA [12]: 1 (1=10-20%)

CC(=O)c1cccc2c1c(=O)c(C(=O)O)nn2-c1ccc(OC(F)(F)F)cc1 [Compound P10, 5-acetyl-4-oxo-1-[4-(trifluoromethoxy)phenyl] cinnoline-3-carboxylic acid]
percentage damage caused to the plant, SOLNI [1]: 1 (1=10-20%)
percentage damage caused to the plant, AMARE [2]: 1 (1=10-20%)
percentage damage caused to the plant, IPOHE [3]: 0 (0=0%)
percentage damage caused to the plant, ECHCG [4]: 5 (5=81-100%)
percentage damage caused to the plant, LOLPE [5]: 4 (4=61-80%)
percentage damage caused to the plant, SETFA [6]: 5 (5=81-100%)
percentage damage caused to the plant, SOLNI [7]: 4 (4=61-80%)
percentage damage caused to the plant, AMARE [8]: 1 (1=10-20%)
percentage damage caused to the plant, IPOHE [9]: 4 (4=61-80%)
percentage damage caused to the plant, ECHCG [10]: 4 (4=61-80%)
percentage damage caused to the plant, LOLPE [11]: 4 (4=61-80%)
percentage damage caused to the plant, SETFA [12]: 4 (4=61-80%)

O=C(O)c1nn(-c2ccc(Cl)cc2)c2cccc(Oc3ccc(F)cc3)c2c1=O [Compound P11, 1-(4-chlorophenyl)-5-(4-fluorophenoxy)-4-oxo-cinnoline-3-carboxylic acid]
percentage damage caused to the plant, SOLNI [1]: 5 (5=81-100%)
percentage damage caused to the plant, AMARE [2]: 3 (3=41-60%)
percentage damage caused to the plant, IPOHE [3]: 0 (0=0%)
percentage damage caused to the plant, ECHCG [4]: 0 (0=0%)
percentage damage caused to the plant, LOLPE [5]: 0 (0=0%)
percentage damage caused to the plant, SETFA [6]: 0 (0=0%)
percentage damage caused to the plant, SOLNI [7]: 1 (1=10-20%)
percentage damage caused to the plant, AMARE [8]: 5 (5=81-100%)
percentage damage caused to the plant, IPOHE [9]: 0 (0=0%)
percentage damage caused to the plant, ECHCG [10]: 0 (0=0%)
percentage damage caused to the plant, LOLPE [11]: 0 (0=0%)
percentage damage caused to the plant, SETFA [12]: 0 (0=0%)

CCOC(=O)c1nn(-c2ccc(OC(F)(F)F)cc2)c2cccc(C#N)c2c1=O [Compound P38, ethyl 5-cyano-4-oxo-1-[4-(trifluoromethoxy)phenyl] cinnoline-3-carboxylate]
percentage damage caused to the plant, AMARE [2]: 3 (3=41-60%)
percentage damage caused to the plant, IPOHE [3]: 1 (1=10-20%)
percentage damage caused to the plant, ECHCG [4]: 5 (5=81-100%)
percentage damage caused to the plant, SETFA [6]: 5 (5=81-100%)
percentage damage caused to the plant, ZEAMX [13]: 2 (2=21-40%)
percentage damage caused to the plant, ABUTH [14]: 0 (0=0%)
percentage damage caused to the plant, AMARE [8]: 3 (3=41-60%)
percentage damage caused to the plant, IPOHE [9]: 3 (3=41-60%)
percentage damage caused to the plant, ECHCG [10]: 5 (5=81-100%)
percentage damage caused to the plant, SETFA [12]: 4 (4=61-80%)
percentage damage caused to the plant, ZEAMX [15]: 2 (2=21-40%)
percentage damage caused to the plant, ABUTH [16]: 1 (1=10-20%)

— patent US12649722B2, “Herbicidal cinnoline derivatives” (SYNGENTA CROP PROTECTION AG, priority 2020, dated 2026)
